Source: patent publication US20150329558A1, “FUSED HETEROCYCLIC COMPOUNDS AS ION CHANNEL MODULATORS” (Gilead Sciences, Inc., priority 2011, published 2015)
Like-named read-outs stand apart in the source and are kept apart here.

Legend:
[1] = molecular target: wild-type human cardiac sodium channel, hNav1.5 (peak INa) (Homo sapiens, UniProt Q14524); assay: Peak INa screening assay (tonic and use-dependent block); assay type: cell-based
Outline: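 Whole-cell automated patch clamp, HEK293 stably expressing hNav1.5 alpha without beta subunits, 23-25° C, holding −100 mV; bath Na⁺ reduced to 20 mM, CsF-based intracellular pH 7.4. Test compound 1 μM; tonic block at 0.1 Hz, use-dependent block at 3 Hz, % peak block after rundown correction.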

[2] = tested on: anesthetized rabbits; assay: Ischemia-induced ST segment elevation in anesthetized rabbits; assay type: in vivo; conditions: rabbit; for area under curve (AUC) for the ST segment height reduced (vs. control): 15 min LAD ischemia, iv bolus
Method: This study was undertaken to determine the anti-ischemic effects of compounds of the present invention in an in vivo rabbit model.
Female New Zealand rabbits (3.0-4.0 kg) were purchased from Western Oregon Rabbitry. Animals were housed on a 12-h light and dark cycle and received standard laboratory chow and water. All experiments were performed in accordance with the Guide for the Care and Use of Laboratory Animals published by The National Research Council and with the experimental protocol approved by the Institutional Animal Care Committee of Gilead Sciences, Inc.
Rabbits were anesthetized with ketamine (35 mg/kg) and xylazine (5 mg/kg) intramuscular injection (im). A tracheotomy was performed and the trachea was intubated with an endotracheal tube. The animal was ventilated with room air supplemented with oxygen using a pressure control animal ventilator (Kent Scientific Corp., Torrington, Conn.) at a respiratory rate of 40 strokes/min and peak inspiration pressure of 10 mmH2O, which was adjusted to keep blood gases and pH within the physiological range (iSTAT clinic analyzer, Heska Corp.; Waukesha, Wis.). The left femoral artery was cannulated for the measurement of blood pressure (BP). Blood samples were also withdrawn from femoral artery. The right external jugular vein was cannulated for drug/vehicle administration. Needle electrodes were inserted subcutaneously into the limbs for recording of the surface electrocardiogram (ECG). The heart was exposed via an incision in the 4th intercostal space (4th and/or 5th ribs were cut for a clear surgical vision). The chest was opened and a pericardial cradle was formed using 4 retractors. A coronary artery occluder, comprised of a snare made of 5 cm PE-10 tubing with a 6-0 Prolene polypropylene suture in it, was placed loosely around the left anterior descending artery (LAD) at its origin. Two unipolar electrodes, made with teflon coated silver wire attached to a small patch of filter paper, were attached on the surface of the ischemic and normal regions of the left ventricle to record epicardial electrocardiogram. Reference electrodes were placed in the open incision of the neck. The body temperature of the animal was monitored via a rectal thermometer and maintained at 37-40° C. by adjusting the surface temperature of the surgical table. Regional ischemia (15 min) was induced by ligating the LAD followed by 15 min of reperfusion caused by releasing the ligation. The heart was excised at the end of the experiment and the LAD was re-ligated. The ischemic area was visualized by perfusing the heart with 1% Evans blue in saline and calculated as a percentage of total ventricular weight. Rabbits with ischemic area less than 10% or larger than 25% were excluded from the analysis. […]

[3] = % inhibition at 1 μM, tonic block, read-out: NAv1.5*-PEAK-TB-
[4] = % inhibition at 1 μM, use-dependent block 3 Hz, read-out: NAv1.5*-PEAK-UDB-3 HZ-
[5] = tonic block of peak INa, 0.1 Hz, 1 μM, read-out: Peak TB 1 μM
[6] = use-dependent block of peak INa, 3 Hz, 1 μM, read-out: Peak UDB 1 μM

Sequence of wild-type human cardiac sodium channel, hNav1.5 (peak INa) (Q14524 whole entry): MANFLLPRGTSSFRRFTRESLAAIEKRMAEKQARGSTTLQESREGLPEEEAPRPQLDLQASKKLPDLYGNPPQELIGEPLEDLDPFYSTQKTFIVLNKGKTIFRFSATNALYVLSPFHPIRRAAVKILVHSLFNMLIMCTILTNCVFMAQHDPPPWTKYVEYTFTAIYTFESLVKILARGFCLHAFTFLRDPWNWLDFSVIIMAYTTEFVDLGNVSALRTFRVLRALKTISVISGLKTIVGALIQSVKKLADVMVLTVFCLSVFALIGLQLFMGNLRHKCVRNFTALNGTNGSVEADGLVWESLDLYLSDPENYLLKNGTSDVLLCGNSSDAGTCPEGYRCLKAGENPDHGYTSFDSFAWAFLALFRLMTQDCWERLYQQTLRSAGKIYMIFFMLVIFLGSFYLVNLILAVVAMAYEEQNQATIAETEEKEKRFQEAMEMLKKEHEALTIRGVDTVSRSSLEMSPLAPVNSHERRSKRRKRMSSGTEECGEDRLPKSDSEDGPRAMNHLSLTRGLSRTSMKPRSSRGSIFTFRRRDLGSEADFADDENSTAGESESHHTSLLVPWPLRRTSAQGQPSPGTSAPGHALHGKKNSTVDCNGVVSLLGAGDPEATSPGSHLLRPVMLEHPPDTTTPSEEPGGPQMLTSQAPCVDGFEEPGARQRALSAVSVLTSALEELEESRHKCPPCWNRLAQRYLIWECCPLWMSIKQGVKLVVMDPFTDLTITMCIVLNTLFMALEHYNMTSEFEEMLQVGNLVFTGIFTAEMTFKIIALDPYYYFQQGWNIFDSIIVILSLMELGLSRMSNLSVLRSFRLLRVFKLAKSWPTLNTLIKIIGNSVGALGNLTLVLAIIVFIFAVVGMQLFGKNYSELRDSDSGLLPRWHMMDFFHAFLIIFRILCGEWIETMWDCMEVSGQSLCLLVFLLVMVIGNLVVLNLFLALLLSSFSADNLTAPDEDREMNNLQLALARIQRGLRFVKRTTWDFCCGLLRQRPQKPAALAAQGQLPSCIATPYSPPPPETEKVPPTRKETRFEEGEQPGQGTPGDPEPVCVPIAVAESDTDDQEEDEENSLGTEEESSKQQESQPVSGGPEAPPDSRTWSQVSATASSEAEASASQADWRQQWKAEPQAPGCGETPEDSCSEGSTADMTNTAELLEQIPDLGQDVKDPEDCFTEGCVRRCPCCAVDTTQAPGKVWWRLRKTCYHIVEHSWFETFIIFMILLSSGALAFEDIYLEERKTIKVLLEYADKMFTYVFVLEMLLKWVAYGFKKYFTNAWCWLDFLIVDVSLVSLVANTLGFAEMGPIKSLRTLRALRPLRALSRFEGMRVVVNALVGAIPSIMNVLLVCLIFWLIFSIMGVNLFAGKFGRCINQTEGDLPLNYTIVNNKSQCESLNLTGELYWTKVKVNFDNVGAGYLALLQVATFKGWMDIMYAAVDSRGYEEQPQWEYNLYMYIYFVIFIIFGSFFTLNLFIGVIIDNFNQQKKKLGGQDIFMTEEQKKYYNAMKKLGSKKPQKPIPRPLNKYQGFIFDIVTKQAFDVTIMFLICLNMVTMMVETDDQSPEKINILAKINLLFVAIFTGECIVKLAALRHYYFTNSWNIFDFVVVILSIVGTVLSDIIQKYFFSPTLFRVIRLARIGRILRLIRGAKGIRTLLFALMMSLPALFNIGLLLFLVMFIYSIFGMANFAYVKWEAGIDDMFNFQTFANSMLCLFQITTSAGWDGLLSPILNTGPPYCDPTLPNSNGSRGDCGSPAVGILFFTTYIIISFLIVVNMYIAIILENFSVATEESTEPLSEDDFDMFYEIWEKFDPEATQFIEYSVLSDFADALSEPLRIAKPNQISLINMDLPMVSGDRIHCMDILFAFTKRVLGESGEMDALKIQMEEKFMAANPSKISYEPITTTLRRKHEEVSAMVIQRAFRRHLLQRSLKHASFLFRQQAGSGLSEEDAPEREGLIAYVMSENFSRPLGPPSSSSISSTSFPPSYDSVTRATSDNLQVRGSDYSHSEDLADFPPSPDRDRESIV

SMILES	inhibition at 1 µM [1, 3] [%]	inhibition at 1 µM [1, 4] [%]	inhibition at 1 µM [1, 5] [%]	inhibition at 1 µM [1, 6] [%]	area under curve (AUC) for the ST segment height reduced (vs. control) ([2]; 0.3 μM plasma concentration) [%]	area under curve (AUC) for the ST segment height reduced (vs. control) ([2]; 0.7 μM plasma concentration) [%]	effect on blood pressure (BP), heart rate (HR) and ECG intervals prior to the ischemia ([2]; at the plasma concentration levels studied)	ischemia-induced ST elevation ([2]; iv bolus 0.1, 0.2 and 0.4 mg/kg)
Cc1noc(Cn2nnc3ccc(-c4ccc(OC(F)(F)F)cc4)cc3c2=O)n1 [II-3, 3-((3-methyl-1,2,4-oxadiazol-5-yl)methyl)-6-(4-(trifluoromethoxy)phenyl)benzo[d][1,2,3]triazin-4(3H)-one]	19	10	19	10	–	–	–	–
O=c1c2cc(-c3ccc(OC(F)(F)F)cc3)ccc2nnn1Cc1noc(C2CC2)n1 [II-14, 3-((5-cyclopropyl-1,2,4-oxadiazol-3-yl)methyl)-6-(4-(trifluoromethoxy)phenyl)benzo[d][1,2,3]triazin-4(3H)-one]	7	1	7	1	19	75	no significant effect	dose-dependently prevented the ischemia-induced ST elevation
O=c1c2cc(-c3ccc(OC(F)(F)F)cc3)ccc2nnn1CCc1ccncn1 [II-17, 3-(2-(pyrimidin-4-yl)ethyl)-6-(4-(trifluoromethoxy)phenyl)benzo[d][1,2,3]triazin-4(3H)-one]	11	7	11	7	–	–	–	–
O=c1c2cc(-c3ccc(OC(F)(F)F)cc3)ccc2nnn1CCc1ncccn1 [II-18, 3-(2-(pyrimidin-2-yl)ethyl)-6-(4-(trifluoromethoxy)phenyl)benzo[d][1,2,3]triazin-4(3H)-one]	15	13	15	13	–	–	–	–
O=c1c2cc(-c3ccc(OC(F)(F)F)cc3)ccc2nnn1CCOc1ncccn1 [II-32, 3-(2-(pyrimidin-2-yloxy)ethyl)-6-(4-(trifluoromethoxy)phenyl)benzo[d][1,2,3]triazin-4(3H)-one]	16	21	16	21	–	–	–	–
N#Cc1ccnc(OCCn2nnc3ccc(-c4ccc(OC(F)(F)F)cc4)cc3c2=O)n1 [II-36, 2-(2-(4-oxo-6-(4-(trifluoromethoxy)phenyl)benzo[d][1,2,3]triazin-3(4H)-yl)ethoxy)pyrimidine-4-carbonitrile]	7	8	7	8	–	–	–	–
O=c1c2cc(-c3ccc(OC(F)(F)F)cc3)ccc2nnn1CC1(CN2CCOCC2)CC1 [II-40, 3-((1-(morpholinomethyl)cyclopropyl)methyl)-6-(4-(trifluoromethoxy)phenyl)benzo[d][1,2,3]triazin-4(3H)-one]	15	29	15	29	–	–	–	–
O=c1c2cc(-c3ccc(OC(F)(F)F)cc3)ccc2nnn1Cc1noc(-c2ccccn2)n1 [II-54, 3-((5-(pyridin-2-yl)-1,2,4-oxadiazol-3-yl)methyl)-6-(4-(trifluoromethoxy)phenyl)benzo[d][1,2,3]triazin-4(3H)-one]	5	8	5	8	–	–	–	–
O=c1c2cc(-c3ccc(OC(F)(F)F)cc3)ccc2nnn1Cc1nnc(C2CC2)o1 [II-67, 3-((5-cyclopropyl-1,3,4-oxadiazol-2-yl)methyl)-6-(4-(trifluoromethoxy)phenyl)benzo[d][1,2,3]triazin-4(3H)-one]	12	7	12	7	–	–	–	–
O=c1c2cc(-c3ccc(OC(F)(F)F)cc3)ccc2cnn1CCn1cccn1 [III-9, 2-(2-(1H-pyrazol-1-yl)ethyl)-7-(4-(trifluoromethoxy)phenyl)phthalazin-1(2H)-one]	15	15	15	15	–	–	–	–
COc1cc(OC)nc(Cn2ncc3ccc(-c4ccc(OC(F)(F)F)cc4)cc3c2=O)n1 [III-19, 2-((4,6-dimethoxypyrimidin-2-yl)methyl)-7-(4-(trifluoromethoxy)phenyl)phthalazin-1 (2H)-one]	14	19	14	19	–	–	–	–
Cc1noc(Cn2cnc3ccc(-c4ccc(OC(F)(F)F)cc4)cc3c2=O)n1 [IV-6, 3-((3-methyl-1,2,4-oxadiazol-5-yl)methyl)-6-(4-(trifluoromethoxy)phenyl)quinazolin-4(3H)-one]	12	7	12	7	–	–	–	–
O=C(c1ncccn1)N1CCc2ccc(-c3ccc(C(F)(F)F)cc3)cc2C1 [IX-7, pyrimidin-2-yl(7-(4-(trifluoromethyl)phenyl)-3,4-dihydroisoquinolin-2(1H)-yl)methanone]	12	17	12	17	–	–	–	–
O=C1c2cc(-c3ccc(C(F)(F)F)cc3)ccc2OCN1Cc1ccccn1 [VIII-1, 3-(pyridin-2-ylmethyl)-6-(4-(trifluoromethyl)phenyl)-2H-benzo[e][1,3]oxazin-4(3H)-one]	35	26	35	26	–	–	–	–
O=C1c2cc(-c3ccc(OC(F)(F)F)cc3)ccc2OCN1Cc1ccccn1 [VIII-3, 3-(pyridin-2-ylmethyl)-6-(4-(trifluoromethoxy)phenyl)-2H-benzo[e][1,3]oxazin-4(3H)-one]	21	12	21	12	–	–	–	–
O=C1c2cc(-c3ccc(OC(F)(F)F)cc3)ccc2OCN1Cc1ncccn1 [VIII-20, 3-(pyrimidin-2-ylmethyl)-6-(4-(trifluoromethoxy)phenyl)-2H-benzo[e][1,3]oxazin-4(3H)-one]	27	23	–	–	–	–	–	–
